Source: article PMC10517971, “An inverse agonist of orphan receptor GPR61 acts by a G protein-competitive allosteric mechanism” (Nature Communications, 2023)
Read-outs that look alike come from different tables or passages of the source.

How the values were obtained:
Human PDE1B1 = Human PDE1B1 (Homo sapiens, UniProt Q01064); experiment: Phosphodiesterase Assay (SPA); assay type: biochemical
[1] = molecular target: T1, human GABAA receptor (α1β2γ2) (Homo sapiens, UniProt P14867+P18507+P47870); experiment: GABA Patch Clamp Assay (agonist, antagonist, PAM modes); assay type: cell-based
T1 construct: expressed in transfected cells
Source text: 151 GABA Patch Clamp Assay
152 Compound effects on the human GABAA recepto r (α1β2γ2), stably express ed in human embryonic
153 kidney (HEK) cells, were examined in three modes of action: agonist, antagonist and positive
154 allosteric modulation (PAM) modes. Chloride currents evoked by the activation of the GABAA
155 recepto r wer e reco rded in the whole- cell patch clamp configuration with the automated Qube384®
156 platform (Sophion Bioscience A/S, Baltorpvej, Denmark). The intracellular solution contained (in
157 mM): CsF 90, CsCl 50, MgCl2 2 EGTA 10, HEPES 10, pH adjusted to 7.2 with CsOH. The
158 extracellular solution contained (in mM): NaCl 138, KCl 5.3, CaCl2 5, MgCl2 0.49, HEPES 10,
160 osmolarity of the internal and external solutions were adjusted with sucrose to 300 mOsm and 305
162 Compounds were dissolved and initially diluted in dimethyl sulfoxide (DMSO), with a final
163 dilution in external sol ution to generate final working concent rations. The final DMSO
164 concentration in all experiments was 0.33% (v/v).
165 Cells and solutions were loaded into the Qube384 10X Qchip (10 recording wells per well, 384
166 wells per QChip). After whole-cell con figuration was achiev ed by negativ e pressure pulse, cells
167 were maintained at a holding potential of - 80 mV throughout the experiment. To avoid
168 desensitization and current rundown due to persistent activation of GABAA, a “stacked pipette”
169 approach was utilized to ensure only a brief exposure of the cells to GABA-containing solutions.
170 In this approach, the perfusion pipettes drew from two liquid sources, first from extracellular
171 solution (14 µL), and next from a GABA-containing solution (7 µL). When dispensed into the
173 extracellular solution. At the start of the experiment, a baseline GABAA cu rrent was established
174 for each well in response to activation by 40 µM GABA. Each subsequent test condition was
175 normalized ag ainst this baseline GABA cu rrent on a per w ell basis.
176 Agonist effects were measured by recording the current evoked by the test article in the absen ce
177 of GABA. Agonism (%) was calculated relative to the current produced by 40 µM GABA for
178 each well: [% Agonism = (Itest article / I 40µM GABA) * 100%].
179 Antagonist effects of test article were examined i n the presence of 40 µM GABA following a 4
180 min incubation in test article. Antagonism was calculated relative to the current produced by 40 […]
182 allosteric modulation (%) by test article was detected when current was enhanced relative to the […]
184 EC50/ IC 50 values were calculated by fitting concentration response curve data to a 4- p aram eter […]
190 determined using a four-parameter logistic fit. […]
193 response. An apparent KB value for antagonist activity was calculated using the following […]

T1 sequence (P14867 28-456): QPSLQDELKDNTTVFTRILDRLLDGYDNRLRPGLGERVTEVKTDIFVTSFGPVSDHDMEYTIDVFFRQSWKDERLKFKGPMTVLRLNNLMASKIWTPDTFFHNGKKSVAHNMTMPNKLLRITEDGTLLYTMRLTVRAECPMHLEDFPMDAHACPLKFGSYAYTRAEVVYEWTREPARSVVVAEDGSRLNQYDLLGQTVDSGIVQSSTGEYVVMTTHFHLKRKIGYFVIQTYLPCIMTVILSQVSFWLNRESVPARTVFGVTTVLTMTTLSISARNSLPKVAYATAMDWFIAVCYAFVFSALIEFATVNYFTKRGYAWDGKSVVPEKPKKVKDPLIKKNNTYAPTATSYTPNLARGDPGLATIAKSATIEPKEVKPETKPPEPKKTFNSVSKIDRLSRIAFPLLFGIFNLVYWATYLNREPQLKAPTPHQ
T1 sequence (P47870 25-512 limits assumed): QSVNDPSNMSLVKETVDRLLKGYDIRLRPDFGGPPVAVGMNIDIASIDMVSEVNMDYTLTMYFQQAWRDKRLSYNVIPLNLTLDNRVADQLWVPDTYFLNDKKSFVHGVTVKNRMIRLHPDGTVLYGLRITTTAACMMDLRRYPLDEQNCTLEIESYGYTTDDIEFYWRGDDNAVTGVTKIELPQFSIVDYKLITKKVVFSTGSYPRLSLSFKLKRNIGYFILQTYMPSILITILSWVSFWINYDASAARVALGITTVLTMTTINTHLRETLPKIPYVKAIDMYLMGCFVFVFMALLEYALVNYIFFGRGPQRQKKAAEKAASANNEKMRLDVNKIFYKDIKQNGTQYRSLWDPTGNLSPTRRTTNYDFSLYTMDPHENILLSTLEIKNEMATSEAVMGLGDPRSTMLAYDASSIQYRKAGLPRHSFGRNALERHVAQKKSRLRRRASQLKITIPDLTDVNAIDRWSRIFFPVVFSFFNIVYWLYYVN
T1 sequence (P18507 40-475): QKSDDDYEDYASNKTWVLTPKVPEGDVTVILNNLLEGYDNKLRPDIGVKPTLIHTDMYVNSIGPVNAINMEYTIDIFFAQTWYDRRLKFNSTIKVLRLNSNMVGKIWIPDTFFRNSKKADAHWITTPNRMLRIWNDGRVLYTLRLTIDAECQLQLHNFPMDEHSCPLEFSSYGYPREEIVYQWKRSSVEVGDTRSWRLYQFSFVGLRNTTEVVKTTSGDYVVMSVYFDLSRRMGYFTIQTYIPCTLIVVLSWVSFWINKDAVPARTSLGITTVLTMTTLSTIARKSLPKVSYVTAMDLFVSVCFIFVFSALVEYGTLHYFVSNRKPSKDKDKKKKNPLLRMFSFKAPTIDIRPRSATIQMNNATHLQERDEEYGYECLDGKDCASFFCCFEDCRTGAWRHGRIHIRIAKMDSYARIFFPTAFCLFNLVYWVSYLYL
Chain of Human PDE1B1 (Q01064 whole entry): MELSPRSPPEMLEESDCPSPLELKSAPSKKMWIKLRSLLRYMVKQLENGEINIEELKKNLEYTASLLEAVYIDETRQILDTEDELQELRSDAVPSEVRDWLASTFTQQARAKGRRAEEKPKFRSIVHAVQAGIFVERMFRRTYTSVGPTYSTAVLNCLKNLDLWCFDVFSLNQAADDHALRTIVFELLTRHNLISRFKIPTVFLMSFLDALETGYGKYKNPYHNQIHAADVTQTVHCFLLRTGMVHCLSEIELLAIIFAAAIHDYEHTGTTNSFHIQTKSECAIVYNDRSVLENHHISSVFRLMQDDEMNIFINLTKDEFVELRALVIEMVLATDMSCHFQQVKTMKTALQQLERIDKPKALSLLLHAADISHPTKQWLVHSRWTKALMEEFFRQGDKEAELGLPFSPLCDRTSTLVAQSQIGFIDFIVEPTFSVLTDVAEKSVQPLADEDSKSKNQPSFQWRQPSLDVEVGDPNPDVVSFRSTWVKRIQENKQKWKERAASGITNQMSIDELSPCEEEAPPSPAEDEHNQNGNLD

## CCOc1cc(C)nc(N(CCOC)S(=O)(=O)c2ccc(NCc3c(F)cncc3F)nc2OC)n1 [Compound 1]
Human PDE1B1
  IC50: > 40 µM
[1]
  EC50: > 100 µM
[1]; GABAa, 10μM
  %Activation@10μM: 0%
  inhibition at 10 µM: 4%
[1]; read-out: PAM EC50, GABAa, positive allosteric modulation mode
  EC50: > 100 µM
